Assay [1] has as its system sebum production of the skin. Briefly: Human sebum study: skin sebum on the forehead measured with Sebumeter SM 815. In kind it is in vivo. The conditions noted are these: lotion with 0.1% sphinganine, topical to forehead twice daily, 28 days (T4 vs T0); compared to the starting value and to the vehicle group; 14 female subjects. On the procedure:
The panel comprised 30 female subjects aged 21-45 years, with 14 subjects applying a lotion containing 0.1% sphinganine and 16 subjects applying a lotion without sphinganine (vehicle control).
The application phase comprised 28 days, with application taking place twice daily (morning and evening) to the forehead.
The skin sebum was measured using a Sebumeter SM 815® from Courage+Khazaka electronic GmbH, Cologne, Germany. The measurements were taken in the middle of the forehead in the region of the glabella lines. The average value calculated from the individual values of three repeat measurements was registered. On the evening before each measurement no formulation was applied. Three hours before the measurement, the forehead was cleaned using a wipe (babylove sensitive wipes, dm-drogerie markt, Karlsruhe, Germany). The measurements were carried out in each case at a time of day defined individually for each subject in the period between 12:00 and 14:30 hours. The sebum value at time point T0 before the application phase and T4 after 28 days was determined.

Another assay relates to hair grease production. Briefly: Human scalp health study: hair tonic applied to scalp, greasiness by subjective evaluation and Sebutape method. In kind it is in vivo. To be noted: hair tonic with 0.2% sphinganine, 3 mL to scalp twice daily, 4 months; vehicle control; 16 subjects per group. Here is the method:
The panel comprised 32 subjects (mixed male/female, minimum age 30, with a tendency for greasy scalp/greasy hair), with 16 subjects in each case applying a hair tonic with 0.2% sphinganine or without sphinganine (vehicle control). The application phase comprised 4 months, with the hair tonic being applied to the scalp twice daily (morning and evening) with the help of a pipette with a defined volume of 3 mL, and gently massaged in using the hands. The test parameters included the shine of the hair and the greasiness of the scalp. The greasiness of the scalp is carried out firstly by means of a subjective evaluation (self and expert estimation), and secondly by means of a “Sebutape” method in accordance with manufacturers instructions. Time points for carrying out the measurements were before the start of application, after two months and after four months.

The next assay concerns stem cell markers. Briefly: Gene expression studies in cell cultures. In kind it is cell-based. An excerpt: A further subject matter of the present invention is consequently the cosmetic use of sphinganine for modulating stem cell markers.

Consider `CCCCCCCCCCCCCCC[C@@H](O)[C@@H](N)CO` [sphinganine], for which, in assay [1], the sebum production entry was “statistically significant reduction in sebum production”. The hair grease production result with hair grease production was “significant reduction in hair grease production”. Further, the “expression of stem cell markers” value with stem cell markers is on record as “beneficially modulated the expression of so-called stem cell markers”.
